Legend:
HDAC1 = HDAC1 (Homo sapiens, UniProt Q13547); assay: HDAC enzyme assay, recombinant HDAC1
[1] = Microsomal stability, human liver microsomes
Protocol: (§1) GIBIO pooled human liver microsomes (HLM) (Cat # HMMCPL), mouse liver microsomes (MLM) (Cat # BCMCPL), and rat liver microsomes (RLM) (Cat # RTMCPL) were purchased from Life Technologies. […] Samples are incubated for 30, 45, or 60 min. Reaction is terminated with ice-cold acetonitrile 0.3% formic acid. Samples are subsequently centrifuged at 4° C. for 15 min at 20,000×g. The supernatant is analysed by LC-MS.
(§2) Compound in vitro metabolic stability was assayed using liver microsomes (LM) at 0.5 mg/mL of proteins, incubated for 30 min (mouse, MLM), 45 min (rat, RLM), 30 or 45 min (human, HLM). % of remaining parent compound was measured using LC-MS.

MCF7 = assay: Anti-proliferative assay (cellular IC50), MCF7; settings: Homo sapiens, MCF7, 72 h, read-out: In Vitro Cellular IC50 MCF7
COLO 205 = assay: cells; settings: Homo sapiens, COLO 205, 72 h, read-out: In Vitro Cellular IC50 COLO 205
K-562 = assay: Anti-proliferative assay (cellular IC50), K-562; settings: Homo sapiens, K562, 72 h, read-out: In Vitro Cellular IC50 K-562
[2] = Microsomal stability, rat liver microsomes
Protocol: as §1, §2

[3] = target: HDAC (HeLa nuclear extracts); assay: HDAC enzyme assay, HeLa nuclear extracts; settings: read-out: In Vitro Enzymatic IC50 HDAC (HeLa)
PI3Kα = target: T1, PI3Kα (Homo sapiens, UniProt P42336); assay: Kinase enzyme assay (ADP-Glo), PI3Kα; format: biochemical; settings: read-out: In Vitro Enzymatic IC50 PI3Kα
T1 construct: purchased Invitrogen, or BPS Bioscience Inc., or SignalChem PV4788 / 40620 / P27-18H

PC-3 = assay: Anti-proliferative assay (cellular IC50), PC-3; settings: Homo sapiens, PC-3, 72 h, read-out: In Vitro Cellular IC50 PC-3
MV-4-11 = assay: cells; settings: Homo sapiens, MV4-11, 72 h, read-out: In Vitro Cellular IC50 MV-4-11
MOLT-4 = assay: Anti-proliferative assay (cellular IC50), MOLT-4; settings: Homo sapiens, MOLT-4, 72 h, read-out: In Vitro Cellular IC50 MOLT-4
[4] = Microsomal stability, mouse liver microsomes
Protocol: as §1, §2

HepG2 = assay: Anti-proliferative assay (cellular IC50), HepG2; settings: Homo sapiens, HepG2, 72 h, read-out: In Vitro Cellular IC50 HepG2
HCT 116 = assay: cells; settings: Homo sapiens, HCT-116, 72 h, read-out: In Vitro Cellular IC50 HCT 116
HDAC6 = target: T2, HDAC6 (Homo sapiens, UniProt Q9UBN7); assay: HDAC enzyme assay, recombinant HDAC6
T2 sequence (Q9UBN7 1-1215): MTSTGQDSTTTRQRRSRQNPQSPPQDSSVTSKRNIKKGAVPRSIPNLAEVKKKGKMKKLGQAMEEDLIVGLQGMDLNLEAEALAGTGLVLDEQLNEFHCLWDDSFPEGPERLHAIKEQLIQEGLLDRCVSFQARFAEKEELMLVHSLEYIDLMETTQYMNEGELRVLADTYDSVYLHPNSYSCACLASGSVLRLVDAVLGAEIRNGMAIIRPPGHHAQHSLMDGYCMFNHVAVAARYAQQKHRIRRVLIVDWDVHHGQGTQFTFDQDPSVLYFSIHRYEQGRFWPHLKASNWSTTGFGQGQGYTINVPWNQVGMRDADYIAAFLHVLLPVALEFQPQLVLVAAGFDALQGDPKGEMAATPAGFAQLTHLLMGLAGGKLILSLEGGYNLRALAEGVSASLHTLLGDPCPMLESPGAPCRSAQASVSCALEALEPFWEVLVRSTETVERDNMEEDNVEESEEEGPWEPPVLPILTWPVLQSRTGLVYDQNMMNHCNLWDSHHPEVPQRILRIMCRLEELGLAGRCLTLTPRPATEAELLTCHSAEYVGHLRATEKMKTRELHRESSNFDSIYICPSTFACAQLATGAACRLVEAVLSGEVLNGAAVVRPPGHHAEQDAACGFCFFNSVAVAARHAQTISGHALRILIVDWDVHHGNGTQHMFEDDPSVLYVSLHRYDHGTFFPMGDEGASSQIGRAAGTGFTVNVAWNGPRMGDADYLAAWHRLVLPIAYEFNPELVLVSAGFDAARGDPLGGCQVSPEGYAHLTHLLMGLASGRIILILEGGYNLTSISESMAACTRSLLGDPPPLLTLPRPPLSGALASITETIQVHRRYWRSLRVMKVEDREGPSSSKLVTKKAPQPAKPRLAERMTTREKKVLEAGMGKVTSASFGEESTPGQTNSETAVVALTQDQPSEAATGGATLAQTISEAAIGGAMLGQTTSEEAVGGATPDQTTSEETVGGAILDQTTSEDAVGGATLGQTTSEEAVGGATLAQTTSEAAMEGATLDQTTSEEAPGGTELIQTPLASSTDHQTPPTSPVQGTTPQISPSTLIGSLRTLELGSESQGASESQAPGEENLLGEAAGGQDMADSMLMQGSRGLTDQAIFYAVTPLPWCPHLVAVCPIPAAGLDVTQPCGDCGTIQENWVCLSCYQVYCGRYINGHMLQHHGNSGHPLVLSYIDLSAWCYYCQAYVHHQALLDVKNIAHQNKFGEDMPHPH

[5] = human, microsomes, 0.75 h, 5 μM, pH 7.4
[6] = rat, microsomes, 0.75 h, 5 μM, pH 7.4
[7] = mouse, microsomes, 0.5 h, 5 μM, pH 7.4

Sequence of HDAC1 (Q13547 whole entry): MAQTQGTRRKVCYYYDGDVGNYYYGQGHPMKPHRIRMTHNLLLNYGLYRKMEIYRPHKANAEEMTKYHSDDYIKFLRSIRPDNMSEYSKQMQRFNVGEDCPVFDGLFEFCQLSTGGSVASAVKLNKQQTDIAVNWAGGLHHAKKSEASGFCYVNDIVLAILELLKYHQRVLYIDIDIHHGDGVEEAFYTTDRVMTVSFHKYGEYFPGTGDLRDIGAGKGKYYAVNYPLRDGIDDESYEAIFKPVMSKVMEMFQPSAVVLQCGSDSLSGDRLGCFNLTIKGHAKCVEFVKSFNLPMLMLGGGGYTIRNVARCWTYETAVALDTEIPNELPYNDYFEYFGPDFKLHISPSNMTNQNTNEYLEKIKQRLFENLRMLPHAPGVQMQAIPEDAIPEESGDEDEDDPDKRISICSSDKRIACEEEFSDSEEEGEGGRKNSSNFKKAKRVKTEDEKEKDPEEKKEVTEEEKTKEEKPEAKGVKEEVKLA
T1 sequence (P42336 whole entry): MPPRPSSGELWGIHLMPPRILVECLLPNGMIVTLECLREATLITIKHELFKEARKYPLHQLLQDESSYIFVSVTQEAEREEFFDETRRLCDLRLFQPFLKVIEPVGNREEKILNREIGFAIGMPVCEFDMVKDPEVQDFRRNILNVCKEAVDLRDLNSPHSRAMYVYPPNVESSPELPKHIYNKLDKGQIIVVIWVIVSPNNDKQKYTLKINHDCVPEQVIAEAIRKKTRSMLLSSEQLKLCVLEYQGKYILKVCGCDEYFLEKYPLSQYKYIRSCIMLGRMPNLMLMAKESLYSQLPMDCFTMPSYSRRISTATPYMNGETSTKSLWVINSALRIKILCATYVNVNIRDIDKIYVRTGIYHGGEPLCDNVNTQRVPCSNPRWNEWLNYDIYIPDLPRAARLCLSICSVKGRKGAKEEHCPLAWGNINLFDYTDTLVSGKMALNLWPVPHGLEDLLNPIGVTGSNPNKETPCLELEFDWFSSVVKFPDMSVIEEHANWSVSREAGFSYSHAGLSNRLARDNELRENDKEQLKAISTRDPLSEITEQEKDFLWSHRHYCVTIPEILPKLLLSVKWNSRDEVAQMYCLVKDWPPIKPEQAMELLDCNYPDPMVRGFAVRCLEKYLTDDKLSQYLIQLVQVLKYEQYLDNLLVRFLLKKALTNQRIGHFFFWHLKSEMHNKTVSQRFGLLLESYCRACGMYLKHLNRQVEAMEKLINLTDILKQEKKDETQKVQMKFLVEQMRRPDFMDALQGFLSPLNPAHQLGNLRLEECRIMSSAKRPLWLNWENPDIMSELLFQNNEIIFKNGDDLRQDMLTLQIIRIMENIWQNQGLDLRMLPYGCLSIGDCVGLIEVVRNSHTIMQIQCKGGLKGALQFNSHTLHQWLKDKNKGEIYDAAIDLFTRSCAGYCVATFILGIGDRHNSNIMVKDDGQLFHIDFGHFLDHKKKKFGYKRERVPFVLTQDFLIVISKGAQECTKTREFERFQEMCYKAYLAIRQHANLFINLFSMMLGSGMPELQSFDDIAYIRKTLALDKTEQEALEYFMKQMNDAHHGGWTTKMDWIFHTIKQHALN
T1 sequence (P27986 whole entry partner): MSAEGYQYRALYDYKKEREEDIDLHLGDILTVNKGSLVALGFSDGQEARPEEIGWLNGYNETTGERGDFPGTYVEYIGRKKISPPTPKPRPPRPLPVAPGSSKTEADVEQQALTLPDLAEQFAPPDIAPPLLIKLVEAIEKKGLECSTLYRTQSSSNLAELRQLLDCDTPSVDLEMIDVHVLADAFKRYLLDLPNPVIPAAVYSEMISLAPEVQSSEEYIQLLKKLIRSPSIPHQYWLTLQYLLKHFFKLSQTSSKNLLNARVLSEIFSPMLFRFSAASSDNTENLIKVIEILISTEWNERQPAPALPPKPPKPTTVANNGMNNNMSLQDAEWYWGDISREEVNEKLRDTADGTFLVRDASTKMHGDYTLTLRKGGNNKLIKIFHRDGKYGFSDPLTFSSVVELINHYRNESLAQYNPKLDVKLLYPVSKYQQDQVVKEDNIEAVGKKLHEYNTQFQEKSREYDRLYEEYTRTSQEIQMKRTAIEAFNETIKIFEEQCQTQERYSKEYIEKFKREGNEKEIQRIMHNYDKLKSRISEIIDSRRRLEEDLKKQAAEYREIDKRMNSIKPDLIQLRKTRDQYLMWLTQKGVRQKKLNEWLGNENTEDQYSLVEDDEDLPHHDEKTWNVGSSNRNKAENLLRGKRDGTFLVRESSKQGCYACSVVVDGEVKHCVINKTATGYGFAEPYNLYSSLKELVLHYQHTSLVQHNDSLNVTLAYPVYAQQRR

## CC(C)n1cnc2c(-c3cccc(OCCCCC(=O)NO)c3)nc(N3CCOCC3)nc21 [compound 10, N-hydroxy-5-(3-(9-isopropyl-2-morpholino-9H-purin-6-yl)phenoxy)pentanamide]
HDAC1
  IC50: 100 to 1000 nM
[1]; [5]
  Microsomal Stability HLM, % of remaining parent compound: 87%
MCF7
  IC50: 500 to 2000 nM
COLO 205
  IC50: 2000 to 10000 nM
K-562
  IC50: 500 to 2000 nM
[2]; [6]
  Microsomal Stability RLM, % of remaining parent compound: 74%
[3]
  IC50: 10 to 100 nM
PI3Kα
  IC50: 1000 to 10000 nM
PC-3
  IC50: 2000 to 10000 nM
MV-4-11
  IC50: < 500 nM

## CCn1cnc2c(-c3cccc(OCCCC(=O)NO)c3)nc(N3CCOCC3)nc21 [compound 45, 4-(3-(9-ethyl-2-morpholino-9H-purin-6-yl)phenoxy)-N-hydroxybutanamide]
HDAC1
  IC50: 100 to 1000 nM
[1]; [5]
  Microsomal Stability HLM, % of remaining parent compound: 105%
MOLT-4
  IC50: < 500 nM
MCF7
  IC50: 500 to 2000 nM
COLO 205
  IC50: 500 to 2000 nM
K-562
  IC50: 500 to 2000 nM
[2]; [6]
  Microsomal Stability RLM, % of remaining parent compound: 45%
[4]; [7]
  Microsomal Stability MLM, % of remaining parent compound: 78%
[3]
  IC50: 10 to 100 nM
PC-3
  IC50: 500 to 2000 nM
MV-4-11
  IC50: < 500 nM

## CCC(CC)n1cnc2c(-c3cccc(OCCCC(=O)NO)c3)nc(N3CCOCC3)nc21 [compound 101, N-hydroxy-4-(3-(2-morpholino-9-(pentan-3-yl)-9H-purin-6-yl)phenoxy)butanamide]
MOLT-4
  IC50: < 500 nM
MCF7
  IC50: < 500 nM
[3]
  IC50: 10 to 100 nM
HepG2
  IC50: 500 to 2000 nM
HCT 116
  IC50: 500 to 2000 nM
MV-4-11
  IC50: < 500 nM

## CCn1c(CN(C)Cc2ccc(C(=O)NO)cc2)nc2c(N3CCOCC3)nc(-c3ccc(OC)nc3)nc21 [compound 96, 4-((((9-ethyl-2-(6-methoxypyridin-3-yl)-6-morpholino-9H-purin-8-yl)methyl)(methyl)amino)methyl)-N-hydroxybenzamide]
MOLT-4
  IC50: 500 to 2000 nM
MCF7
  IC50: 500 to 2000 nM
COLO 205
  IC50: 500 to 2000 nM
K-562
  IC50: 2000 to 10000 nM
[3]
  IC50: 100 to 1000 nM
HepG2
  IC50: 500 to 2000 nM
PC-3
  IC50: 2000 to 10000 nM
HCT 116
  IC50: 500 to 2000 nM
MV-4-11
  IC50: 500 to 2000 nM

## COc1ccc2c(c1)[C@]13CCCC[C@@H]1[C@H](C2)N(C)CC3 [Dextromethorphan, dextromethorphan, reference compound]
[1]; human liver microsomes 0.5 mg/mL, compound 5 μM, 30 or 45 min
  Microsomal Stability HLM, % of remaining parent compound: 65%
[2]; rat liver microsomes 0.5 mg/mL, compound 5 μM, 45 min
  Microsomal Stability RLM, % of remaining parent compound: 5%
[4]; mouse liver microsomes 0.5 mg/mL, compound 5 μM, 30 min
  Microsomal Stability MLM, % of remaining parent compound: 19%

## CC(C)n1ccc2c(-c3cccc(OCCCC(=O)NO)c3)nc(N3CCCC3)nc21 [compound 75, N-hydroxy-4-(3-(7-isopropyl-2-(pyrrolidin-1-yl)-7H-pyrrolo[2,3-d]pyrimidin-4-yl)phenoxy)butanamide]
MCF7
  IC50: 500 to 2000 nM
[3]
  IC50: 10 to 100 nM
HepG2
  IC50: 2000 to 10000 nM
PC-3
  IC50: 2000 to 10000 nM
HCT 116
  IC50: 500 to 2000 nM
MV-4-11
  IC50: < 500 nM

## CC(C)n1cnc2c(N3CCOCC3)nc(-c3ccc(OCCCC(=O)NO)cc3)nc21 [compound 82, N-hydroxy-4-(4-(9-isopropyl-6-morpholino-9H-purin-2-yl)phenoxy)butanamide]
[1]; [5]
  Microsomal Stability HLM, % of remaining parent compound: 83%
MCF7
  IC50: 2000 to 10000 nM
COLO 205
  IC50: > 10000 nM
[2]; [6]
  Microsomal Stability RLM, % of remaining parent compound: 64%
[3]
  IC50: 10 to 100 nM
PC-3
  IC50: > 10000 nM
MV-4-11
  IC50: 500 to 2000 nM

## CC(C)n1cnc2c(-c3cccc(NC(=O)CCCCCCC(=O)NO)c3)nc(N3CCOCC3)nc21 [compound 4]
HDAC1
  IC50: 10 to 100 nM
[1]; [5]
  Microsomal Stability HLM, % of remaining parent compound: 36%
MCF7
  IC50: 500 to 2000 nM
K-562
  IC50: 500 to 2000 nM
[2]; [6]
  Microsomal Stability RLM, % of remaining parent compound: 42%

## CCCn1cnc2c(-c3cccc(OCCCC(=O)NO)c3)nc(N3CCOCC3)nc21 [compound 43, N-hydroxy-4-(3-(2-morpholino-9-propyl-9H-purin-6-yl)phenoxy)butanamide]
HDAC1
  IC50: 100 to 1000 nM
[1]; [5]
  Microsomal Stability HLM, % of remaining parent compound: 97%
MOLT-4
  IC50: < 500 nM
MCF7
  IC50: 500 to 2000 nM
COLO 205
  IC50: 500 to 2000 nM
K-562
  IC50: < 500 nM
[2]; [6]
  Microsomal Stability RLM, % of remaining parent compound: 54%
[4]; [7]
  Microsomal Stability MLM, % of remaining parent compound: 96%
[3]
  IC50: 10 to 100 nM
PC-3
  IC50: 500 to 2000 nM
MV-4-11
  IC50: < 500 nM

## CC(C)n1cnc2c(-c3cccc(OCCCC(=O)NO)c3)nc(N(C)C)nc21 [compound 31, 4-(3-(2-(dimethylamino)-9-isopropyl-9H-purin-6-yl)phenoxy)-N-hydroxybutanamide]
HDAC1
  IC50: 10 to 100 nM
[1]; [5]
  Microsomal Stability HLM, % of remaining parent compound: 90%
MOLT-4
  IC50: 500 to 2000 nM
MCF7
  IC50: 500 to 2000 nM
COLO 205
  IC50: 500 to 2000 nM
K-562
  IC50: 500 to 2000 nM
[2]; [6]
  Microsomal Stability RLM, % of remaining parent compound: 25%
[4]; [7]
  Microsomal Stability MLM, % of remaining parent compound: 53%
[3]
  IC50: 10 to 100 nM
PC-3
  IC50: 2000 to 10000 nM
MV-4-11
  IC50: < 500 nM

## CC(C)n1cnc2c(-c3ccc(F)c(OCCCC(=O)NO)c3)nc(N3CCOCC3)nc21 [compound 62, 4-(2-fluoro-5-(9-isopropyl-2-morpholino-9H-purin-6-yl)phenoxy)-N-hydroxybutanamide]
MCF7
  IC50: 500 to 2000 nM
COLO 205
  IC50: 2000 to 10000 nM
[3]
  IC50: 10 to 100 nM
HepG2
  IC50: 500 to 2000 nM
PC-3
  IC50: 2000 to 10000 nM
MV-4-11
  IC50: < 500 nM

## CC(C)n1ccc2c(-c3cccc(OCCCC(=O)NO)c3)nc(N3CCOCC3)nc21 [compound 76, N-hydroxy-4-(3-(7-isopropyl-2-morpholino-7H-pyrrolo[2,3-d]pyrimidin-4-yl)phenoxy)butanamide]
HDAC1
  IC50: 10 to 100 nM
MOLT-4
  IC50: < 500 nM
MCF7
  IC50: 500 to 2000 nM
K-562
  IC50: 500 to 2000 nM
[3]
  IC50: 10 to 100 nM
HepG2
  IC50: 500 to 2000 nM
PC-3
  IC50: 500 to 2000 nM
HCT 116
  IC50: < 500 nM
MV-4-11
  IC50: < 500 nM

## CCn1c(CN(C)CCCCCC(=O)NO)nc2c(N3CCOCC3)nc(-c3cccc(CO)c3)nc21 [compound 97]
HDAC1
  IC50: 10 to 100 nM
MCF7
  IC50: 2000 to 10000 nM
HDAC6
  IC50: 100 to 1000 nM
[3]
  IC50: 100 to 1000 nM
PI3Kα
  IC50: 10 to 100 nM
HepG2
  IC50: 2000 to 10000 nM
PC-3
  IC50: 2000 to 10000 nM
MV-4-11
  IC50: 500 to 2000 nM
